Measured values as given in patent publication US6831199B1, “Pyrimidine compounds and derivatives thereof” (G. D. Searle & Co., priority 1995, dated 2004).
Where a name gives a salt, the structure may show the parent alone.

Key:
[1] = target: T1, Human vitronectin receptor (αvβ3) (Homo sapiens, UniProt P05106+P06756); experiment: Vitronectin adhesion assay (solid phase receptor assay, competition with biotinylated vitronectin); format: binding; settings: read-out: AvB3 IC50
T1 construct: Human vitronectin receptor (αvβ3) was purified from human placenta; from tissue; host or cells: human placenta
Method: VITRONECTIN ADHESION ASSAY
Assay buffer, OPD substrate tablets, and RIA grade BSA were obtained from Sigma (St. Louis, Mo.). Anti-biotin antibody was obtained from Calbiochem (La Jolla, Calif.). Linbro microtiter plates were obtained from Flow Labs (McLean, Va.). ADP reagent was obtained from Sigma (St. Louis, Mo.).
(§1) Solid Phase Receptor Assays
(§2) The purified human vitronectin receptor (αvβ3) was diluted from stock solutions to 1.0 μg/mL in Tris-buffered saline containing 1.0 mM Ca^++, Mg^++, and Mn^++, pH 7.4 (TBS^+++). The diluted receptor was immediately transferred to Linbro microtiter plates at 100 μL/well (100 ng receptor/well). The plates were sealed and incubated overnight at 4° C. to allow the receptor to bind to the wells. All remaining steps were at room temperature. The assay plates were emptied and 200 μL of 1% RIA grade BSA in TBS^+++(TBS^+++/BSA) were added to block exposed plastic surfaces. Following a 2 hour incubation, the assay plates were washed with TBS^+++ using a 96 well plate washer. Logarithmic serial dilution of the test compound and controls were made starting at a stock concentration of 2 mM and using 2 nM biotinylated vitronectin in TBS^+++/BSA as the diluent. This premixing of labeled ligand with test (or control) ligand, and subsequent transfer of 50 μL aliquots to the assay plate was carried out with a CETUS Propette robot; the final concentration of the labeled ligand was 1 nM and the highest concentration of test compound was 1.0×10^−4 M. The competition occurred for two hours after which all wells were washed with a plate washer as before. Affinity purified horseradish peroxidase labeled goat anti-biotin antibody was diluted 1:3000 in TBS^+++/BSA and 125 μL were added to each well. After 30 minutes, the plates were washed and incubated with OPD/H2O2 substrate in 100 mM/L Citrate buffer, pH 5.0. The plate was read with a microtiter plate reader at a wavelength of 450 nm and when the maximum-binding control wells reached an absorbance of about 1.0, the final A450 were recorded for analysis. The data were analyzed using a macro written for use with the EXCEL™ spreadsheet program. The mean, standard deviation, and % CV were determined for duplicate concentrations. The mean A450 values were normalized to the mean of four maximum-binding controls (no competitor added)(B-MAX). The normalized values were subjected to a four parameter curve fit algorithm [Rodbard et al., Int.

[2] = target: T2, Human fibrinogen receptor (αIIbβ3) (Homo sapiens, UniProt P05106+P08514); experiment: Purified IIb/IIIa receptor assay (solid phase receptor assay, competition with biotinylated vitronectin); format: binding; settings: read-out: IIb/IIIa IC50
T2 construct: Human fibrinogen receptor (αIIbβ3) was purified from outdated platelets; from tissue; host or cells: outdated human platelets
Method: PURIFIED IIb/IIIa RECEPTOR ASSAY
Human fibrinogen receptor (αIIbβ3) was purified from outdated platelets. […] Biotinylated human vitronectin was prepared by coupling NHS-biotin from Pierce Chemical Company (Rockford, Ill.) to purified vitronectin as previously described. […] Anti-biotin antibody was obtained from Calbiochem (La Jolla, Calif.). Linbro microtiter plates were obtained from Flow Labs (McLean, Va.). ADP reagent was obtained from Sigma (St. Louis, Mo.).
as §1
as §2, with “human fibrinogen” for “human vitronectin”, “receptor (αIIbβ3)” for “receptor (αvβ3)”, “in TBS^+++ (TBS^+++/BSA)” for “in TBS^+++(TBS^+++/BSA)”, “with […]” for “with OPD/H2O2”, “mM/L citrate” for “mM/L Citrate”, “fit algorithm, [Robard” for “fit algorithm [Rodbard”

| Structure (SMILES) | IC50 [1] | IC50 [2] |
| --- | --- | --- |
| COC(=O)CC(NC(=O)CNC(=O)c1cccc(NC(=N)N)c1)c1ccsc1 (racemic) [Example 57, (±)methyl β-[[2-[[[3-[(aminoiminomethyl)amino]phenyl]carbonyl]amino]acetyl]amino]thiophene-3-propanoate, trifluoroacetate salt] | 1340 nM | 15300 nM |
| CCN/C(=N\C)Nc1cccc(C(=O)NCC(=O)NC(CC(=O)O)c2ccc(F)cc2)c1 (racemic) [Example 297, (±)β-[[2-[[[3-[[(ethylamino)(methylimino)methyl]amino]phenyl]carbonyl]amino]acetyl]amino]-4-fluorobenzenepropanoic acid, trifluoroacetate salt] | 89.8 nM | 3920 nM |
| Cc1cccc(C(CC(=O)O)NC(=O)CNC(=O)c2cccc(NC(=N)N)c2)n1 (racemic) [Example 246, (±)β-[[2-[[[3-[(aminoiminomethyl)amino]phenyl]carbonyl]amino]acetyl]amino]-6-methylpyridine-2-propanoic acid, bis(trifluoroacetate)salt] | 7.24 nM | 802 nM |
| N=C(N)Nc1cccc(C(=O)NCC(=O)NC(CC(=O)O)C(=O)NCCO)c1 (racemic) [Example 89, (±)3-[[2-[[[3-[(aminoiminomethyl)amino]phenyl]carbonyl]amino]acetyl]amino]-4-[(2-hydroxyethyl)amino]-4-oxobutanoic acid, trifluoroacetate salt] | 1240 nM | 9830 nM |
| CCOC(=O)CC(NC(=O)CNC(=O)c1cccc(NC(N)=O)c1)c1cccnc1 (stereo not drawn) [Example 109, ethyl β-[[2-[[[3-(aminocarbonylamino]phenyl]carbonyl]amino]acetylamino]pyridine-3-propanoate, trifluoroacetate salt] | 575 nM | > 100000 nM |
| CCOC(=O)CCNC(=O)CNC(=O)c1cccc(NC(=N)N)c1 [Example 96, N-[2-[[[3-[(aminoiminomethyl)amino]phenyl]carbonyl]amino]acetyl]-β-alanine, ethyl ester] | 1810 nM | 5400 nM |
| C#C[C@H](CC(=O)O)NC(=O)CNC(=O)c1cccc(N/C(=N\C#N)NCc2ccc(S(N)(=O)=O)cc2)c1 [Example 158, 3S-[[2-[[[3-[[[[(4-(aminosulfonyl)phenylmethyl]amino](cyanoimino)methyl]amino]phenyl]carbonyl]amino]acetyl]amino]-4-pentynoic acid, trifluoroacetate salt, monohydrate] | 10.1 nM | 547 nM |
| N=C(N)Nc1cccc(C(=O)NCC(=O)NC(CC(=O)O)C(F)(F)F)c1 (stereo not drawn) [Example 261, 3-[[2-[[[3-[(aminoiminomethyl)amino]phenyl]carbonyl]aminoacetyl]amino]-4,4,4-trifluorobutanoic acid, trifluoroacetate salt] | 6.47 nM | 4710 nM |
| CC(NC(=O)c1cccc(NC(=N)N)c1)C(=O)NC(CC(=O)O)c1cccnc1 (stereo not drawn) [Example 82, β-[[2-[[[3-[(aminoiminomethyl)amino]phenyl]carbonyl]amino]-1-oxopropyl]amino]pyridine-3-propanoic acid, bis(trifluoroacetate)salt] | 334 nM | 353 nM |
| CC(C)C(CC(=O)O)NC(=O)CNC(=O)c1cccc(NC(=N)N)c1 (stereo not drawn) [Example 263, 3-[[2-[[[3-[(aminoiminomethyl)amino]phenyl]carbonyl]amino]acetyl]amino]-4-methylpentanoic acid, trifluoroacetate salt] | 4.19 nM | 2760 nM |
| CS(=O)(=O)c1cccc(C(CC(=O)O)NC(=O)CNC(=O)c2cccc(NC(=N)N)c2)c1 (stereo not drawn) [Example 247, β-[[2-[[[3-[(aminoiminomethyl)amino]phenyl]carbonyl]amino]acetyl]amino]-3-(methylsulfonyl)benzenepropanoic acid, bis(trifluoroacetate)salt] | 1.24 nM | 417 nM |

More lines, now with the values ahead:

| IC50 [1] | IC50 [2] | Structure (SMILES) |
| --- | --- | --- |
| 0.58 nM | 22 nM | COc1cc(C(CC(=O)O)NC(=O)CNC(=O)c2cccc(NC(=N)N)c2)cc2c1OCO2 (stereo not drawn) [Example 256, β-[[2-[[[3-[(aminoiminomethyl)amino]phenyl]carbonyl]amino]acetyl]amino]-4-methoxy-1,3-benzodioxole-6-propanoic acid, trifluoroacetate salt] |
| 0.41 nM | 656 nM | O=C(O)CC(NC(=O)CNC(=O)c1cccc(NC2=NCCCN2)c1)c1cc(Cl)cc(Br)c1 (racemic) [Example 215, (±)3-bromo-5-chloro-β-[[2-[[[3-[(1,4,5,6-tetrahydropyrimidin-2-yl)amino]phenyl]carbonyl]amino]acetyl]amino]-benzenepropanoic acid, trifluoroacetate salt] |
| 3.56 nM | 650 nM | O=C(O)CC(NC(=O)CNC(=O)c1cccc(NC2=NCCC2)c1)c1cc(Cl)cc(Cl)c1 (racemic) [Example 203, (±)β-[[2-[[[3-[(3,4-dihydro-2H-pyrrol-5-yl)amino]phenyl]carbonyl]amino]acetyl]amino]-3,5-dichlorobenzenepropanoic acid, trifluoroacetate salt] |
| 2.35 nM | 454 nM | N=C(N)Nc1cccc(C(=O)NCC(=O)NC(CC(=O)O)c2cc(Cl)cc(Br)c2)c1 (racemic) [Example 214, (±)β-[[2-[[[3-[(aminoiminomethyl)amino]phenyl]carbonyl]amino]acetyl]amino]-3-bromo-5-chlorobenzenepropanoic acid, trifluoroacetate salt] |
| 0.96 nM | 134 nM | CSc1cccc(C(CC(=O)O)NC(=O)CNC(=O)c2cccc(NC(=N)N)c2)c1 (racemic) [Example 245, (±)β-[[2-[[[3-[(aminoiminomethyl)amino]phenyl]carbonyl]amino]acetyl]amino]-3-(methylthio)benzenepropanoic acid, trifluoroacetate salt] |
| 1.41 nM | 198 nM | N=C(N)Nc1cccc(C(=O)NCC(=O)NC(CC(=O)O)c2cc(Cl)c(O)c(Cl)c2)c1 (stereo not drawn) [Example 277, β-[[2-[[[3-[(aminoiminomethyl)amino]phenyl]carbonyl]amino]acetyl]amino]-3,5-dichloro-4-hydroxybenzenepropanoic acid, trifluoroacetate salt] |
| 195 nM | 18400 nM | O=C(O)CC(NC(=O)CNC(=O)c1cccc(Nc2cc(=O)[nH]c(=O)[nH]2)c1)c1cc(Cl)cc(Cl)c1 (stereo not drawn) [Example 284, 3,5-dichloro-β-[[2-[[[3-[[1,2,3,4-tetrahydro-2,4-dioxopyrimidin-6-yl)amino]phenyl]carbonyl]amino]acetyl]amino]benzenepropanoic acid] |
